Data taken from patent publication US11851391B2, “Antifungal compounds and methods of forming the same” (University of Kentucky Research Foundation, priority 2018, dated 2023).
“Also recorded” adds a separate entry of the source.

System: C. albicans ATCC 10231 (strain A)
Assay: Time-kill assay
Type: cell-based, Candida albicans
Source text: To determine the fungistatic or fungicidal nature of the compounds, time-kill assays were next performed over a 24-hour period with 4,4′-bis((E)-1-(2-(4-fluorophenyl)hydrazono)ethyl)-1,1′-biphenyl (17c).
Time-kill assays were used to assess the inhibitory efficiency of compound 17c against two yeast strains, C. albicans ATCC 10231 (strain A) and C. albicans ATCC 64124 (strain B). The protocol for time-kill assays followed methods previously described with minor modifications. Yeast cultures were grown overnight in YPD medium at 35° C. with shaking at 200 rpm. A working stock of fungal cells was made by diluting cultures in RPMI 1640 medium to an OD600 of 0.125 (˜1×10^6 CFU/mL). From the working stock, 100 μL of cells were added to 4.9 mL of RPMI 1640 medium in sterile culture tubes, making the starting fungal cell concentration […]. Compounds were then added to the fungal cells. […] The treated fungal cultures were incubated at 35° C. with 200 rpm shaking for 24 h. Samples were aliquoted from the different treatments at regular time points (0, 3, 6, 9, 12, and 24 h) and plated in duplicate. For each time point, cultures were vortexed, 100 μL of culture were aspirated, and 10-fold serial dilutions were made in sterile ddH2O. From the appropriate dilutions, 100 μL of fungal suspension was spread onto PDA plates and incubated at 35° C. for 48 h before colony were counted. At 24 h, 50 μL of 1 mM resazurin in PBS was added to the treatments and incubated at 35° C. with 200 rpm shaking for 2 h in the dark for visual inspection (FIGS. 5A-D). Experiments were performed in duplicate.

## C/C(=N\Nc1ccc(F)cc1)c1ccc(-c2ccc(/C(C)=N/Nc3ccc(F)cc3)cc2)cc1 [Compound 17c, 4,4′-bis((E)-1-(2-(4-fluorophenyl)hydrazono)ethyl)-1,1′-biphenyl]
17c at one-half of the MIC value versus VOR at the MIC value
  reduction in fungal growth compared with VOR: greater reduction in fungal growth
24-hour period, 0.5x, 1x, 2x MIC
  fungistatic or fungicidal nature: fungistatic; also recorded: more fungistatic than the control drug VOR
